One experiment deals with KB tumors. Kind of experiment: In vivo antitumor experiments, s.c. KB tumors. Details: species or system nu/nu mice. The method, then: (§1) Four to six week-old female nu/nu mice (Charles River, Wilmington, Mass.) or six to seven week-old female Balb/c mice (Harlan Sprague Dawley, Inc., Indianapolis, Ind.) or four to six week-old female DBA mice (Harlan Sprague Dawley, Inc., Indianapolis, Ind.) were maintained on a standard 12 h light-dark cycle and fed ad libitum with folate-deficient chow (Harlan diet #TD00434, Harlan Teklad, Madison, Wis.) for the duration of the experiment. FR-positive human nasopharyngeal KB cells, human ovarian IGR-OV1 cells, human ovarian OV90 cells and syngeneic mouse lymphocytic leukemia L1210 cells were grown continuously as a monolayer, using folate-free RPMI medium (FFRPMI) containing 10% heat-inactivated fetal calf serum (HIFCS) at 37° C. in a 5% CO2/95% air-humidified atmosphere with no antibiotics. Syngeneic FR-positive Madison 109 (M109) lung carcinoma cells were generated from M109 tumors and cultured for a few days in FFRPMI containing 10% HIFCS for a few days before implantation in mice. KB cells (1×10^6 per nu/nu mouse), M109 cells (1×10^6 per Balb/c mouse), IGR-OV1 cells (4×10^6 per nu/nu mouse) or OV90 cells (1×10^6 per nu/nu mouse) or L1210 cells (2×10^5 per DBA mouse) in 100 μL were injected in the subcutis of the dorsal medial area. Mice were divided into groups of five, and test articles were freshly prepared and injected through the lateral tail vein under sterile conditions in a volume of 200 μL of phosphate-buffered saline (PBS). Intravenous (i.v.) treatments were typically initiated when the tumors were approximately 100-200 mm^3 in volume. The mice in the control groups received no treatment. Growth of each s.c. tumor was followed by measuring the tumor three times per week during treatment and twice per week thereafter until a volume of 1500 mm^3 was reached. Tumors were measured in two perpendicular directions using Vernier calipers, and their volumes were calculated as 0.5×L×W^2, where L=measurement of longest axis in mm and W=measurement of axis perpendicular to L in mm. As a general measure of toxicity, changes in body weights were determined on the same schedule as tumor volume measurements. Survival of animals was monitored daily. Animals that were moribund (or unable to reach food or water) were euthanized by CO2 asphyxiation. All in vivo studies were performed in accordance with the American Accreditation Association of Laboratory Animal Care guidelines.
(§2) For individual tumors, a partial response (PR) was defined as volume regression >50% but with measurable tumor (>2 mm^3) remaining at all times. Complete response (CR) was defined as a disappearance of measurable tumor mass (<2 mm^3) at some point until the end of the study. A cure was defined as a CR without tumor re-growth within the study time frame.

The subject of the next experiment is KB tumor cells. As to the kind of experiment: Cell growth inhibition (3H-thymidine), KB tumor cells. Particulars: Homo sapiens, FIG. 31, read-out: In vitro cytotoxicity IC50. Format: cell-based. The method, then: Exponentially growing KB or J6456 cells were seeded in 24-well plates 24 h before treatment with drugs. […] Cells treated with vindesine, DAVLBH or doxorubicin alone were treated for 72 h. A total of five drug concentrations for each drug plus a drug-free control were evaluated. Cells were then treated with fresh medium containing ^3H-thymidine for 2 h at 37° C. Cells were further washed with PBS and treated with ice-cold 5% trichloroacetic acid. After 15 min, the trichloroacetic acid was aspirated and the cells solubilized by the addition of 0.25 N sodium hydroxide for 15 min at room temperature. Each solubilized sample was transferred to scintillation vials containing Ecolume scintillation cocktail and counted in a liquid scintillation counter. […]

The subject of the next experiment is M109 tumors. Kind of experiment: In vivo antitumor experiments, s.c. M109 tumors. Also noted: species or system Balb/c mice. Particulars: five animals per group. On the procedure: as §1, §2
For experiment [1], the system named is IGR-OV1 cells. Particulars: FIG. 53, EC145 with or without Lapatinib.
Experiment [2] relates to OV90 cells. Particulars: FIG. 53, EC145 with or without Lapatinib.
The test system of experiment [3] is OV90 cells. As to the kind of experiment: cells. Particulars: Homo sapiens, OV-90.
For experiment [4], the system named is IGR-OV1 cells. As to the kind of experiment: cells. Particulars: Homo sapiens, IGROV-1.
A further experiment relates to RAW cells. As to the kind of experiment: Cell growth inhibition, RAW cells. Format: cell-based. Particulars: FIG. 49.
The mark [5] stands for this setting: FIG. 14, M109 tumors 86-149 mm^3, EC145 alone 2 μmol/kg/injection TIW 2 weeks (1 μmol/kg in combination), Gemcitabine 40 mg/kg BIW 5 doses.
The mark [6] stands for this setting: FIG. 16, M109 tumors 99-164 mm^3, EC145 alone 2 μmol/kg/injection TIW 2 weeks (1 μmol/kg in combination), Tarceva 100 mg/kg qd5 2 weeks.
Setting [7] is: FIG. 10, KB tumors 114-177 mm^3, five animals per group, EC145 1 μmol/kg/injection TIW 2 weeks, Irinotecan 40 mg/kg BIW 2 weeks.
Where [8] appears, read: FIG. 12, KB tumors 108-222 mm^3, five animals per group, EC145 1 μmol/kg/injection TIW 2 weeks, Avastin 5 mg/kg BIW 2 weeks.

Several values for one entry are separate records, joined by “and”; a condition that tells them apart may be missing. Equal values may be shown once. Read-outs that look alike come from different tables or passages of the source.

`N.N.O=C([O-])C1(C(=O)[O-])CCC1.[Pt+2]` [Carboplatin, carboplatin] showed a partial responses in the experiment on KB tumors (FIG. 1, KB tumors 109-188 mm^3, five animals per group, EC145 1 μmol/kg/injection TIW 2 weeks, Carboplatin 50 mg/kg TIW 1 week) of 3.

Take `N.N.[Cl][Pt][Cl]` [Cisplatin, cisplatin]: in the experiment on KB tumors (mouse, in vivo), the partial responses is on record as 2.

With `CC[C@]1(O)C[C@@H]2CN(CCc3c([nH]c4ccccc34)[C@@](C(=O)OC)(c3cc4c(cc3OC)N(C)[C@H]3[C@@](O)(C(=O)NN)[C@H](O)[C@]5(CC)C=CCN6CC[C@]43[C@@H]65)C2)C1` [DAVLBH, desacetylvinblastine hydrazide], the “effect of unconjugated DAVLBH on Doxil activity” value in the experiment on KB tumors (FIG. 27, DAVLBH 0.75 μmol/kg/injection TIW 2 weeks + DOXIL 5 mg/kg BIW 2 weeks) is on record as “antagonizes Doxil activity”.

Take `COc1cccc2c1C(=O)c1c(O)c3c(c(O)c1C2=O)C[C@@](O)(C(=O)CO)C[C@@H]3O[C@H]1C[C@H](N)[C@H](O)[C@H](C)O1` [Doxorubicin, doxorubicin]: the IC50 (as a rule, the concentration at which inhibition is half-maximal) in the experiment with KB tumor cells was determined as 0.034 µM.

Turning to `CC[C@]1(O)C[C@H]2CN(CCc3c([nH]c4ccccc34)[C@@](C(=O)OC)(c3cc4c(cc3OC)N(C)[C@H]3[C@@](O)(C(=O)NNC(=O)OCCSSC[C@H](NC(=O)[C@H](CC(=O)O)NC(=O)[C@H](CC(=O)O)NC(=O)[C@H](CCCNC(=N)N)NC(=O)[C@H](CC(=O)O)NC(=O)CC[C@H](NC(=O)c5ccc(NCc6cnc7nc(N)[nH]c(=O)c7n6)cc5)C(=O)O)C(=O)O)[C@H](O)[C@]5(CC)C=CCN6CC[C@]43[C@@H]65)C2)C1` [EC145], the complete responses with KB tumors (mouse, in vivo) came to 0; with M109 tumors (setting [5]), 0; with M109 tumors (setting [6]) it was 0. Also, the Cures was 2 with M109 tumors (setting [5]); 0 with M109 tumors (setting [6]); 3/5 and 3 in the experiment with M109 tumors (FIG. 40, M109 tumors, EC145 1 μmol/kg/injection TIW 2 weeks, DOXIL 4 mg/kg BIW 2 weeks). Also, the partial responses with M109 tumors (setting [5]) and with M109 tumors (setting [6]) was 0 throughout. For the same molecule, the IC50 amounted to 0.00358 µM with IGR-OV1 cells [1] and 0.329 µM in the experiment with OV90 cells [2].

In the case of `Nc1ccn([C@@H]2O[C@H](CO)[C@@H](O)C2(F)F)c(=O)n1` [Gemcitabine, gemcitabine], in the experiment with M109 tumors (setting [5]), the Cures entry is reported as “no”, the complete responses entry is reported as “no” and the partial responses entry is reported as “no”.

Turning to `CCc1c2c(nc3ccc(OC(=O)N4CCC(N5CCCCC5)CC4)cc13)-c1cc3c(c(=O)n1C2)COC(=O)[C@]3(O)CC` [Irinotecan, irinotecan], in the experiment on KB tumors (setting [7]), the Cures entry is listed as “no”, the complete responses result was “no” and the partial responses entry was “no”.

`CS(=O)(=O)CCNCc1ccc(-c2ccc3ncnc(Nc4ccc(OCc5cccc(F)c5)c(Cl)c4)c3c2)o1` [Lapatinib, lapatinib]: the IC50 in the experiment on OV90 cells [3] turned out to be 2.46 µM; in the experiment with IGR-OV1 cells [4], 1.75 µM; in the experiment on RAW cells, 2.85 µM.

`C#Cc1cccc(Nc2ncnc3cc(OCCOC)c(OCCOC)cc23)c1` [Tarceva, erlotinib]: in the experiment on M109 tumors (setting [6]), the Cures result was “no”, the complete responses entry is recorded as “no” and the partial responses entry is “no”.

As for `CC[C@@]1(O)C(=O)OCc2c1cc1n(c2=O)Cc2cc3c(CN(C)C)c(O)ccc3nc2-1` [Topotecan, topotecan], the Cures result in the experiment on KB tumors (FIG. 5, KB tumors 144-204 mm^3, five animals per group, EC145 1 μmol/kg/injection TIW 2 weeks, Topotecan 5 mg/kg TIW 2 weeks) is reported as “no”.

As to `CC[C@]1(O)C[C@@H]2CN(CCc3c([nH]c4ccccc34)[C@@](C(=O)OC)(c3cc4c(cc3OC)N(C)[C@H]3[C@@](O)(C(N)=O)[C@H](O)[C@]5(CC)C=CCN6CC[C@]43[C@@H]65)C2)C1` [vindesine], in the experiment on KB tumors (FIG. 25/26, vindesine 1 mg/kg/injection TIW 2 weeks + DOXIL 5 mg/kg BIW 2 weeks), the “effect of unconjugated vindesine on Doxil activity” value was “antagonizes Doxil activity”.

Regarding bevacizumab [Avastin], in the experiment on KB tumors (setting [8]), the Cures entry is “no”, the complete responses result is given as “no” and the partial responses result is “no”.

The record behind these values is patent US8883737B2, “Methods of treating cancer” (Endocyte, Inc., priority 2010, dated 2014).
